Data published in PMC5224920, “Assessing the mechanism and therapeutic potential of modulators of the human Mediator complex-associated protein kinases” (eLife, 2016).

System: 12 single or co-culture in vitro tissue models of primary cells
Assay: Culture/co-culture cell model panel, extracellular biomarkers (DiscoveRx); for CCL2/MCP-1: reference of the scale not given here; for CD141/Thrombomodulin: reference of the scale not given here; for CD142/Tissue Factor: reference of the scale not given here; for CXCL8/IL-8: reference of the scale not given here; for CXCL9/MIG: reference of the scale not given here; for M-CSF: reference of the scale not given here; for Proliferation: reference of the scale not given here; for SRB: reference of the scale not given here
Type: cell-based, human

## Cc1n[nH]c2ncc(C(=O)N3CCC[C@H]3c3ccc(Cl)cc3)cc12 [CMPD4]
3C, 1.00E4 nM
  CCL2/MCP-1: -0.095
  CD54/ICAM-1: -0.015
  CD62E/E-Selectin: 0.054
  CD87/uPAR: -0.432
  CD106/VCAM-1: 0.073
  CD141/Thrombomodulin: 0.088
  CD142/Tissue Factor: 0.112
  CXCL8/IL-8: -0.381
  CXCL9/MIG: -0.030
  HLA-DR: -0.292
  Proliferation: -0.144
  SRB: -0.077
3C, 1.11E3 nM
  CCL2/MCP-1: -0.139
  CD54/ICAM-1: -0.012
  CD62E/E-Selectin: 0.043
  CD87/uPAR: -0.475
  CD106/VCAM-1: 0.074
  CD141/Thrombomodulin: 0.143
  CD142/Tissue Factor: 0.111
  CXCL8/IL-8: -0.399
  CXCL9/MIG: -0.035
  HLA-DR: -0.213
  Proliferation: -0.067
  SRB: -0.088
3C, 1.23E2 nM
  CCL2/MCP-1: -0.155
  CD54/ICAM-1: -0.013
  CD62E/E-Selectin: 0.033
  CD87/uPAR: -0.463
  CD106/VCAM-1: 0.092
  CD141/Thrombomodulin: 0.134
  CD142/Tissue Factor: 0.145
  CXCL8/IL-8: -0.289
  CXCL9/MIG: -0.028
  HLA-DR: -0.216
  Proliferation: -0.036
  SRB: -0.101
3C, 1.37E1 nM
  CCL2/MCP-1: -0.054
  CD54/ICAM-1: -0.029
  CD62E/E-Selectin: 0.033
  CD87/uPAR: -0.383
  CD106/VCAM-1: 0.060
  CD141/Thrombomodulin: 0.107
  CD142/Tissue Factor: 0.109
  CXCL8/IL-8: -0.180
  CXCL9/MIG: -0.010
  HLA-DR: -0.145
  Proliferation: -0.003
  SRB: -0.076
3C, 3.33E3 nM
  CCL2/MCP-1: -0.119
  CD54/ICAM-1: -0.027
  CD62E/E-Selectin: 0.034
  CD87/uPAR: -0.471
  CD106/VCAM-1: 0.069
  CD141/Thrombomodulin: 0.129
  CD142/Tissue Factor: 0.128
  CXCL8/IL-8: -0.412
  CXCL9/MIG: -0.032
  HLA-DR: -0.242
  Proliferation: -0.090
  SRB: -0.073
3C, 3.70E2 nM
  CCL2/MCP-1: -0.153
  CD54/ICAM-1: -0.078
  CD62E/E-Selectin: 0.052
  CD87/uPAR: -0.455
  CD106/VCAM-1: 0.094
  CD141/Thrombomodulin: 0.139
  CD142/Tissue Factor: 0.142
  CXCL8/IL-8: -0.363
  CXCL9/MIG: -0.028
  HLA-DR: -0.210
  Proliferation: -0.026
  SRB: -0.097
3C, 4.12E1 nM
  CCL2/MCP-1: -0.076
  CD54/ICAM-1: -0.033
  CD62E/E-Selectin: 0.032
  CD87/uPAR: -0.415
  CD106/VCAM-1: 0.093
  CD141/Thrombomodulin: 0.127
  CD142/Tissue Factor: 0.136
  CXCL8/IL-8: -0.222
  CXCL9/MIG: -0.007
  HLA-DR: -0.208
  Proliferation: -0.018
  SRB: -0.080
3C, 4.57E0 nM
  CCL2/MCP-1: 0.026
  CD54/ICAM-1: -0.005
  CD62E/E-Selectin: 0.022
  CD87/uPAR: -0.265
  CD106/VCAM-1: 0.039
  CD141/Thrombomodulin: 0.096
  CD142/Tissue Factor: 0.092
  CXCL8/IL-8: -0.109
  CXCL9/MIG: -0.014
  HLA-DR: -0.077
  Proliferation: -0.017
  SRB: -0.052
/HDF3CT, 1.00E4 nM
  CCL2/MCP-1: -0.123
  CD54/ICAM-1: -0.074
  CD106/VCAM-1: 0.00544
  CXCL8/IL-8: -0.159
  CXCL9/MIG: -0.043
  CXCL10/IP-10: -0.008
  Collagen I: -0.050
  M-CSF: -0.035
  MMP-1: -0.057
  PAI-I: -0.206
  SRB: -0.005
  TIMP-2: 0.00643
/HDF3CT, 1.11E3 nM
  CCL2/MCP-1: -0.116
  CD54/ICAM-1: -0.059
  CD106/VCAM-1: 0.008
  CXCL8/IL-8: -0.199
  CXCL9/MIG: -0.051
  CXCL10/IP-10: 0.00172
  Collagen I: -0.048
  M-CSF: -0.052
  MMP-1: -0.043
  PAI-I: -0.122
  SRB: 0.010
  TIMP-2: 0.028
/HDF3CT, 1.23E2 nM
  CCL2/MCP-1: -0.004
  CD54/ICAM-1: -0.048
  CD106/VCAM-1: 0.017
  CXCL8/IL-8: -0.167
  CXCL9/MIG: -0.040
  CXCL10/IP-10: 0.011
  Collagen I: -0.027
  M-CSF: -0.051
  MMP-1: 0.00166
  PAI-I: -0.00646
  SRB: 0.00373
  TIMP-2: 0.061
/HDF3CT, 1.37E1 nM
  CCL2/MCP-1: 0.037
  CD54/ICAM-1: -0.040
  CD106/VCAM-1: 0.019
  CXCL8/IL-8: -0.056
  CXCL9/MIG: 0.00152
  CXCL10/IP-10: 0.022
  Collagen I: -0.019
  M-CSF: -0.071
  MMP-1: 0.083
  PAI-I: 0.023
  SRB: 0.004
  TIMP-2: 0.069
/HDF3CT, 3.33E3 nM
  CCL2/MCP-1: -0.101
  CD54/ICAM-1: -0.068
  CD106/VCAM-1: 0.005
  CXCL8/IL-8: -0.189
  CXCL9/MIG: -0.053
  CXCL10/IP-10: 0.002
  Collagen I: -0.071
  M-CSF: -0.054
  MMP-1: -0.042
  PAI-I: -0.184
  SRB: 0.008
  TIMP-2: 0.012
/HDF3CT, 3.70E2 nM
  CCL2/MCP-1: -0.041
  CD54/ICAM-1: -0.059
  CD106/VCAM-1: 0.017
  CXCL8/IL-8: -0.180
  CXCL9/MIG: -0.046
  CXCL10/IP-10: 0.00747
  Collagen I: -0.040
